Results on nine compounds are retold here after PubChem BioAssay AID1259407 (Chemical Carcinogenesis Research Information System (CCRIS), 2018).

Structures are written as SMILES. Active and inactive are the calls of the source. The rule behind the calls is not given here.

In the data set the test system is CCRIS mutagenicity, Ames/micronucleus/aberration tests. The data set is described as follows: CCRIS mutagenicity studies.
Setting [1] is: Test System: AMES SALMONELLA TYPHIMURIUM, Strain/Indicator: TA98, Metabolic Activation: NONE, Method: STANDARD PLATE.
Setting [2] is: Test System: AMES SALMONELLA TYPHIMURIUM, Strain/Indicator: TA100, Metabolic Activation: NONE, Method: STANDARD PLATE.
[3] abbreviates: Test System: AMES SALMONELLA TYPHIMURIUM, Strain/Indicator: TA98, Metabolic Activation: HAMSTER, LIVER, S-9, AROCLOR 1254 (10%), Method: PREINCUBATION
[4] abbreviates: Test System: AMES SALMONELLA TYPHIMURIUM, Strain/Indicator: TA98, Metabolic Activation: NONE, Method: PREINCUBATION
[5] abbreviates: Test System: AMES SALMONELLA TYPHIMURIUM, Strain/Indicator: TA98, Metabolic Activation: RAT, LIVER, S-9, AROCLOR 1254 (10%), Method: PREINCUBATION
The mark [6] stands for this setting: Test System: AMES SALMONELLA TYPHIMURIUM, Strain/Indicator: TA100, Metabolic Activation: HAMSTER, LIVER, S-9, AROCLOR 1254 (10%), Method: PREINCUBATION
[7] abbreviates: Test System: AMES SALMONELLA TYPHIMURIUM, Strain/Indicator: TA100, Metabolic Activation: NONE, Method: PREINCUBATION
Setting [8] is: Test System: AMES SALMONELLA TYPHIMURIUM, Strain/Indicator: TA100, Metabolic Activation: RAT, LIVER, S-9, AROCLOR 1254 (10%), Method: PREINCUBATION
Where [9] appears, read: Test System: AMES SALMONELLA TYPHIMURIUM, Strain/Indicator: TA1535, Metabolic Activation: HAMSTER, LIVER, S-9, AROCLOR 1254 (10%), Method: PREINCUBATION
Where [10] appears, read: Test System: AMES SALMONELLA TYPHIMURIUM, Strain/Indicator: TA1535, Metabolic Activation: NONE, Method: PREINCUBATION
The mark [11] stands for this setting: Test System: AMES SALMONELLA TYPHIMURIUM, Strain/Indicator: TA1535, Metabolic Activation: RAT, LIVER, S-9, AROCLOR 1254 (10%), Method: PREINCUBATION
[12] abbreviates: Test System: AMES SALMONELLA TYPHIMURIUM, Strain/Indicator: TA1537, Metabolic Activation: HAMSTER, LIVER, S-9, AROCLOR 1254 (10%), Method: PREINCUBATION
[13] abbreviates: Test System: AMES SALMONELLA TYPHIMURIUM, Strain/Indicator: TA1537, Metabolic Activation: NONE, Method: PREINCUBATION
The mark [14] stands for this setting: Test System: AMES SALMONELLA TYPHIMURIUM, Strain/Indicator: TA1537, Metabolic Activation: RAT, LIVER, S-9, AROCLOR 1254 (10%), Method: PREINCUBATION

Regarding `CC(=O)Nc1ccc2ccc3ccc(O)c4ccc1c2c34`, the mutagenic call is, setting by setting: (Test System: AMES SALMONELLA TYPHIMURIUM, Strain/Indicator: TA98(1,8-DNP6), Metabolic Activation: NONE, Method: STANDARD PLATE) “inactive; negative”; (Test System: AMES SALMONELLA TYPHIMURIUM, Strain/Indicator: TA98(1,8-DNP6), Metabolic Activation: RAT, LIVER, S-9, AROCLOR 1254, Method: STANDARD PLATE) “inactive; negative”; (Test System: AMES SALMONELLA TYPHIMURIUM, Strain/Indicator: YG1024, Metabolic Activation: NONE, Method: STANDARD PLATE) “inactive; negative”; (Test System: AMES SALMONELLA TYPHIMURIUM, Strain/Indicator: YG1024, Metabolic Activation: RAT, LIVER, S-9, AROCLOR 1254, Method: STANDARD PLATE) “inactive; negative”.

Turning to `O=C(CBr)c1oc([N+](=O)[O-])c(Cl)c1Cl`, the mutagenic call under setting [1] was “active; positive”; the mutagenic call (Test System: AMES SALMONELLA TYPHIMURIUM, Strain/Indicator: TA100 (NR), Metabolic Activation: NONE, Method: STANDARD PLATE) was “active; positive”; the mutagenic call under setting [2] is “active; positive”; the mutagenic call (Test System: AMES SALMONELLA TYPHIMURIUM, Strain/Indicator: TA100, Metabolic Activation: NONE, Method: STANDARD PLATE (ANAEROBIC INCUBATION)) was “active; positive”.

As for `CCc1c(Br)c(Br)c(Br)c(Br)c1Br`, the mutagenic call is, setting by setting: under setting [3], “inactive; negative”; under setting [4], “inactive; negative”; under setting [5], “inactive; negative”; under setting [6], “inactive; negative”; under setting [7], “inactive; negative”; under setting [8], “inactive; negative”. Moreover, the mutagenic call under setting [9] was “inactive; negative”; the mutagenic call under setting [10] is “inactive; negative”; the mutagenic call under setting [11] is “inactive; negative”; the mutagenic call under setting [12] was “inactive; negative”; the mutagenic call under setting [13] was “inactive; negative”; the mutagenic call under setting [14] was “inactive; negative”.

Take `N#CCCC(=O)/C=C/c1ccc(C(=O)O)cc1`: the mutagenic call reads like this: under setting [4], “inactive; negative”; (Test System: AMES SALMONELLA TYPHIMURIUM, Strain/Indicator: TA98, Metabolic Activation: RAT, LIVER, S-9, PCB, Method: PREINCUBATION) “inactive; negative”; under setting [7], “inactive; negative”; (Test System: AMES SALMONELLA TYPHIMURIUM, Strain/Indicator: TA100, Metabolic Activation: RAT, LIVER, S-9, PCB, Method: PREINCUBATION) “inactive; negative”.

For `CC1(C)CC2=C(C=O)[C@]3(C=O)C[C@]3(C)[C@@H](O)[C@@H]2C1`, the mutagenic call reads like this: under setting [1], “inactive; negative”; under setting [2], “inactive; negative”; (Test System: AMES SALMONELLA TYPHIMURIUM, Strain/Indicator: TA2637, Metabolic Activation: NONE, Method: STANDARD PLATE) “inactive; negative”.

In the case of `CCC(Cl)C(Cl)C(Cl)CC(Cl)C(Cl)C(C)Cl` (stereo unspecified), the mutagenic call was “inactive; negative” (Test System: AMES SALMONELLA TYPHIMURIUM, Strain/Indicator: TA97, Metabolic Activation: HAMSTER, LIVER, S-9, AROCLOR 1254, Method: PREINCUBATION); “inactive; negative” (Test System: AMES SALMONELLA TYPHIMURIUM, Strain/Indicator: TA97, Metabolic Activation: NONE, Method: PREINCUBATION); “inactive; negative” (Test System: AMES SALMONELLA TYPHIMURIUM, Strain/Indicator: TA97, Metabolic Activation: RAT, LIVER, S-9, AROCLOR 1254, Method: PREINCUBATION); “inactive; negative” under setting [3]; “inactive; negative” (Test System: AMES SALMONELLA TYPHIMURIUM, Strain/Indicator: TA98, Metabolic Activation: HAMSTER, LIVER, S-9, AROCLOR 1254, Method: PREINCUBATION); “inactive; negative” under setting [4]. Besides, the mutagenic call by setting is: under setting [5], “inactive; negative”; (Test System: AMES SALMONELLA TYPHIMURIUM, Strain/Indicator: TA98, Metabolic Activation: RAT, LIVER, S-9, AROCLOR 1254, Method: PREINCUBATION) “inactive; negative”; under setting [6], “inactive; negative”; (Test System: AMES SALMONELLA TYPHIMURIUM, Strain/Indicator: TA100, Metabolic Activation: HAMSTER, LIVER, S-9, AROCLOR 1254, Method: PREINCUBATION) “inactive; negative”; under setting [7], “inactive; negative”; under setting [8], “inactive; negative”. Further, the mutagenic call is, setting by setting: (Test System: AMES SALMONELLA TYPHIMURIUM, Strain/Indicator: TA100, Metabolic Activation: RAT, LIVER, S-9, AROCLOR 1254, Method: PREINCUBATION) “inactive; negative”; under setting [9], “inactive; negative”; (Test System: AMES SALMONELLA TYPHIMURIUM, Strain/Indicator: TA1535, Metabolic Activation: HAMSTER, LIVER, S-9, AROCLOR 1254, Method: PREINCUBATION) “inactive; negative”; under setting [10], “inactive; negative”; under setting [11], “inactive; negative”; (Test System: AMES SALMONELLA TYPHIMURIUM, Strain/Indicator: TA1535, Metabolic Activation: RAT, LIVER, S-9, AROCLOR 1254, Method: PREINCUBATION) “inactive; negative”. The mutagenic call is, setting by setting: under setting [12], “inactive; negative”; under setting [13], “inactive; negative”; under setting [14], “inactive; negative”; (Test System: MOUSE LYMPHOMA, Strain/Indicator: L5178Y (TK+/TK-), Metabolic Activation: NONE, Method: SUSPENSION/PLATE) “active; positive”.

For `CCCCc1oc2ccccc2c1C(=O)c1cc(I)c(OCCN(CC)CC)c(I)c1`, the mutagenic call is “inactive; negative” (End Point: In vivo chromosomal aberrations, Test System: Bone marrow cells, Species: Rat, Strain/Sex: SHR (spontaneously hypertensive)/Female, Route: Oral) and “active; positive” (End Point: In vivo chromosomal aberrations, Test System: Bone marrow cells, Species: Rat, Strain/Sex: Wistar-Kyoto (WKY)/Female, Route: Oral).

Regarding `BrCC(Br)c1ccccc1` (stereo unspecified), the mutagenic call is “active; positive” (Test System: AMES SALMONELLA TYPHIMURIUM, Strain/Indicator: TA100/NG-57, Metabolic Activation: CELL PRETREATMENT WITH GLUTATHIONE, Method: PREINCUBATION); “active; positive” (Test System: AMES SALMONELLA TYPHIMURIUM, Strain/Indicator: TA100/NG-57, Metabolic Activation: NONE, Method: PREINCUBATION); “active; positive” (Test System: AMES SALMONELLA TYPHIMURIUM, Strain/Indicator: TA100, Metabolic Activation: CELL PRETREATMENT WITH GLUTATHIONE, Method: PREINCUBATION); “active; positive” under setting [7]; “active; positive” (Test System: AMES SALMONELLA TYPHIMURIUM, Strain/Indicator: TA100, Metabolic Activation: NONE, Method: SPOT TEST).

On to `Cc1cc2ccccc2c2ccc3c(c12)C=CC(=O)C3=O`, for which the mutagenic call (Test System: AMES SALMONELLA TYPHIMURIUM, Strain/Indicator: TA97A, Metabolic Activation: NONE, Method: PREINCUBATION) is “active; positive”; the mutagenic call under setting [4] is “inactive; negative”; the mutagenic call under setting [7] was “active; positive”; the mutagenic call (Test System: AMES SALMONELLA TYPHIMURIUM, Strain/Indicator: TA102, Metabolic Activation: NONE, Method: PREINCUBATION) was “inactive; negative”; the mutagenic call (Test System: AMES SALMONELLA TYPHIMURIUM, Strain/Indicator: TA104, Metabolic Activation: NONE, Method: PREINCUBATION) is “inactive; negative”.
